Laboratory results: patent US7739055B2, “Methods and systems for generating and evaluating peptides” (priority 2005, dated 2010)
≈ marks a conversion by molar mass, not a printed value. Where two headings read alike, the source gives them in different places. Where a SMILES comes first, the peptide text is derived from it.

Key:
[1] = first concentration that prohibits growth by OD at 24 hours, Table 1

MIC E. coli (Escherichia coli; [1]) | MIC B. cereus (B. cereus; [1]) | MIC E. coli (Escherichia coli; 24 h) [µg/mL] | Compound | MIC B. cereus (B. cereus) | MIC B. cereus (B. cereus; 24 h) [µg/mL]
+ (MIC greater than 256 ug/mL) | + (MIC greater than 256 ug/mL) | – | HTGRSGPATGHSGHSSTHGS [Peptide 86] | – | –
– | + (MIC greater than 256 ug/mL) | 128 (≈ 59.8 µM) | CC(C)C[C@H](NC(=O)[C@H](CCCCN)NC(=O)[C@H](Cc1ccccc1)NC(=O)[C@@H](NC(=O)[C@H](C)NC(=O)[C@@H]1CCCN1C(=O)[C@@H](N)CC(C)C)C(C)C)C(=O)N[C@@H](C)C(=O)N[C@@H](CO)C(=O)N[C@@H](CCCCN)C(=O)N[C@H](C(=O)N[C@@H](Cc1ccccc1)C(=O)N1CCC[C@H]1C(=O)N[C@@H](C)C(=O)N[C@H](C(=O)N[C@@H](Cc1ccc(O)cc1)C(=O)N[C@@H](CS)C(=O)N[C@@H](CCCCN)C(=O)N[C@@H](C)C(=O)N[C@@H](CO)C(=O)O)C(C)C)C(C)C [Peptide 62] (H-LPAVFKLASKVFPAVYCKAS-OH; N-terminus and C-terminus assumed) | – | –
+ (MIC greater than 256 ug/mL) | + (MIC greater than 256 ug/mL) | – | SVIGKIASKVVPSVYCAISK [Peptide 44] | – | –
+ (MIC greater than 256 ug/mL) | + (MIC greater than 256 ug/mL) | – | FLPFVGRIASKVVPSVIGKV [Peptide 75] | – | –
+ (MIC greater than 256 ug/mL) | + (MIC greater than 256 ug/mL) | – | KTVPVVLKASIKVSSAGFGF [Shuffled 82] | – | –
+ (MIC greater than 256 ug/mL) | + (MIC greater than 256 ug/mL) | – | LPVLFSSAIAKVGIKLGAKV [Shuffled 96] | – | –
+ (MIC greater than 256 ug/mL) | + (MIC greater than 256 ug/mL) | – | TAKVVVFVSFSYVVPKKRAC [Shuffled 2] | – | –
+ (MIC greater than 256 ug/mL) | – | – | CC[C@H](C)[C@H](NC(=O)[C@H](CC(C)C)NC(=O)CNC(=O)[C@@H](NC(=O)[C@@H](NC(=O)[C@H](C)NC(=O)[C@@H]1CCCN1C(=O)[C@@H](NC(=O)[C@@H](NC(=O)[C@H](CCCCN)NC(=O)[C@H](CO)NC(=O)[C@H](C)NC(=O)[C@H](CC(C)C)NC(=O)[C@H](CO)NC(=O)[C@H](Cc1ccccc1)NC(=O)[C@H](CC(C)C)NC(=O)[C@H](C)NC(=O)CN)C(C)C)C(C)C)C(C)C)[C@@H](C)CC)C(=O)N[C@@H](CCCCN)C(=O)N[C@@H](CCCCN)C(=O)O [Peptide 96] (H-GALFSLASKVVPAVIGLIKK-OH; N-terminus and C-terminus assumed) | – | 256 (≈ 127 µM)
+ (MIC greater than 256 ug/mL) | + (MIC greater than 256 ug/mL) | – | KSPFVLVVSSRVAAVIKSLP [Shuffled 25] | – | –
+ (MIC greater than 256 ug/mL) | + (MIC greater than 256 ug/mL) | – | VVGRVASKVVPSLIGLFTTK [Peptide 65] | – | –
+ (MIC greater than 256 ug/mL) | + (MIC greater than 256 ug/mL) | – | GAVFGVASKVVPSVFSAIKK [Peptide 84] | – | –
+ (MIC greater than 256 ug/mL) | + (MIC greater than 256 ug/mL) | – | ALFSLASKVVPSVFSMVTKK [Peptide 1] | – | –
+ (MIC greater than 256 ug/mL) | + (MIC greater than 256 ug/mL) | – | KFDPLEGAPMARGIVLEKVG [Peptide 74] | – | –
+ (MIC greater than 256 ug/mL) | + (MIC greater than 256 ug/mL) | – | VFSVKGGKPSVVIKVVVAST [Shuffled 69] | – | –
+ (MIC greater than 256 ug/mL) | + (MIC greater than 256 ug/mL) | – | LPVVFKIASKVVPSVISKIT [Peptide 83] | – | –
+ (MIC greater than 256 ug/mL) | + (MIC greater than 256 ug/mL) | – | MVVFSVPKFKSTVAKLLSSA [Shuffled 1] | – | –
+ (MIC greater than 256 ug/mL) | + (MIC greater than 256 ug/mL) | – | KVYVVKIAVPCFPKSARSVS [Shuffled 29] | – | –
+ (MIC greater than 256 ug/mL) | + (MIC greater than 256 ug/mL) | – | SVVFGVASKVVPSVIGKVKT [Peptide 69] | – | –
– | + (MIC greater than 256 ug/mL) | 256 (≈ 120 µM) | CC[C@H](C)[C@H](NC(=O)[C@H](CCSC)NC(=O)[C@H](CO)NC(=O)[C@@H](NC(=O)[C@H](CC(C)C)NC(=O)[C@H](CO)NC(=O)[C@@H]1CCCN1C(=O)[C@@H](NC(=O)[C@@H](NC(=O)[C@H](CCCCN)NC(=O)[C@H](CO)NC(=O)[C@H](C)NC(=O)[C@@H](NC(=O)[C@H](CCCNC(=N)N)NC(=O)CNC(=O)[C@@H](NC(=O)[C@H](Cc1ccccc1)NC(=O)[C@H](CO)NC(=O)[C@@H](N)CC(C)C)C(C)C)C(C)C)C(C)C)C(C)C)[C@@H](C)CC)C(=O)N[C@@H](CCCCN)C(=O)O [Peptide 55] (H-LSFVGRVASKVVPSLISMIK-OH; N-terminus and C-terminus assumed) | – | –
+ (MIC greater than 256 ug/mL) | + (MIC greater than 256 ug/mL) | – | SSSIPIKMVLVRALVFVKSG [Shuffled 55] | – | –
+ (MIC greater than 256 ug/mL) | + (MIC greater than 256 ug/mL) | – | VKRAGKGVAVVPSPLFKIVV [Shuffled 45] | – | –
+ (MIC greater than 256 ug/mL) | + (MIC greater than 256 ug/mL) | – | LSAVGKIASKVVPSVIGAFK [Peptide 6] | – | –
+ (MIC greater than 256 ug/mL) | + (MIC greater than 256 ug/mL) | – | VIAFAKTKEAKAKLKGQAKG [Shuffled 77] | – | –
– | + (MIC greater than 256 ug/mL) | 128 (≈ 59.5 µM) | CC[C@H](C)[C@H](NC(=O)[C@@H](NC(=O)[C@H](CS)NC(=O)[C@H](Cc1ccc(O)cc1)NC(=O)[C@@H](NC(=O)[C@H](C)NC(=O)[C@@H]1CCCN1C(=O)[C@H](Cc1ccccc1)NC(=O)[C@@H](NC(=O)[C@H](CCCCN)NC(=O)[C@H](CO)NC(=O)[C@H](C)NC(=O)[C@H](CC(C)C)NC(=O)[C@H](CCCCN)NC(=O)CNC(=O)[C@H](CC(C)C)NC(=O)[C@H](C)N)C(C)C)C(C)C)[C@@H](C)O)C(=O)N[C@@H](CO)C(=O)N[C@@H](CCCNC(=N)N)C(=O)N[C@@H](CCCCN)C(=O)O [Peptide 23] (H-ALGKLASKVFPAVYCTISRK-OH; N-terminus and C-terminus assumed) | – | –
+ (MIC greater than 256 ug/mL) | + (MIC greater than 256 ug/mL) | – | SAVGSVASKVVPSLISKVTK [Peptide 36] | – | –
+ (MIC greater than 256 ug/mL) | + (MIC greater than 256 ug/mL) | – | LPAVFKLASKVVPSVFGLVK [Peptide 42] | – | –
+ (MIC greater than 256 ug/mL) | + (MIC greater than 256 ug/mL) | – | SVKVAKSVIPSAVFAGGKVF [Shuffled 84] | – | –
– | – | – | CC[C@H](C)[C@H](NC(=O)CN)C(=O)NCC(=O)N[C@@H](C)C(=O)N[C@H](C(=O)N[C@@H](CC(C)C)C(=O)N[C@@H](CCCCN)C(=O)N[C@H](C(=O)N[C@@H](CC(C)C)C(=O)N[C@H](C(=O)N[C@H](C(=O)NCC(=O)N[C@@H](CC(C)C)C(=O)N1CCC[C@H]1C(=O)N[C@@H](C)C(=O)N[C@@H](CC(C)C)C(=O)N[C@H](C(=O)N[C@@H](CO)C(=O)N[C@@H](Cc1c[nH]c2ccccc12)C(=O)N[C@H](C(=O)N[C@@H](CCCCN)C(=O)N[C@@H](CCCNC(=N)N)C(=O)N[C@@H](CCCCN)C(=O)N[C@@H](CCCNC(=N)N)C(=O)N[C@@H](CCC(N)=O)C(=O)N[C@@H](CCC(N)=O)C(N)=O)[C@@H](C)CC)[C@@H](C)CC)[C@@H](C)O)[C@@H](C)O)C(C)C)C(C)C [Melittin] | – | 8 (≈ 2.81 µM)

Compound | MIC E. coli (Escherichia coli; [1]) | MIC B. cereus (B. cereus; [1]) | MIC E. coli (Escherichia coli; 24 h) [µg/mL] | MIC B. cereus (B. cereus) | MIC B. cereus (B. cereus; 24 h) [µg/mL]
VDKGSYLPRPTPPRPIYNRN [Pyrrhocoricin] | ++ (MIC greater than 128 ug/mL, not sufficiently soluble to test as 256 ug/mL) | – | – | ++ (key: +: MIC greater than 256 ug/mL; ++: MIC greater than 128 ug/mL, not sufficiently soluble to test as 256 ug/mL) | –
VKDLAKFIAKTVAKQGGCYL [Peptide 33] | ++ (MIC greater than 128 ug/mL, not sufficiently soluble to test as 256 ug/mL) | ++ (MIC greater than 128 ug/mL, not sufficiently soluble to test as 256 ug/mL) | – | – | –
PSLLYKAKAVFCKPSAVAVF [Shuffled 62] | ++ (MIC greater than 128 ug/mL, not sufficiently soluble to test as 256 ug/mL) | ++ (MIC greater than 128 ug/mL, not sufficiently soluble to test as 256 ug/mL) | – | – | –
CC[C@H](C)[C@H](NC(=O)[C@@H](NC(=O)[C@H](CCCCN)NC(=O)[C@H](C)NC(=O)[C@H](CC(C)C)NC(=O)[C@H](CCCCN)NC(=O)[C@H](CCCCN)NC(=O)CN)[C@@H](C)O)C(=O)N[C@@H](C)C(=O)N[C@@H](CCCCN)C(=O)N[C@@H](CCC(=O)O)C(=O)N[C@H](C(=O)N[C@@H](C)C(=O)N[C@@H](CCCCN)C(=O)N[C@@H](CCC(N)=O)C(=O)NCC(=O)N[C@@H](C)C(=O)N[C@@H](CCCCN)C(=O)N[C@@H](Cc1ccccc1)C(=O)N[C@@H](C)C(=O)O)C(C)C [Peptide 77] (H-GKKLAKTIAKEVAKQGAKFA-OH) | 64 µg/mL (≈ 30.7 µM) | – | – | + (key: +: MIC greater than 256 ug/mL; ++: MIC greater than 128 ug/mL, not sufficiently soluble to test as 256 ug/mL) | –
FKVVISKPGLSVRVGTALVT [Shuffled 65] | ++ (MIC greater than 128 ug/mL, not sufficiently soluble to test as 256 ug/mL) | ++ (MIC greater than 128 ug/mL, not sufficiently soluble to test as 256 ug/mL) | – | – | –
MKSIAKFIAKTVAKQGAKQG [Peptide 39] | + (MIC greater than 256 ug/mL) | – | – | + (key: +: MIC greater than 256 ug/mL; ++: MIC greater than 128 ug/mL, not sufficiently soluble to test as 256 ug/mL) | –
CC[C@H](C)[C@H](NC(=O)CNC(=O)[C@@H](NC(=O)[C@H](CCCCN)NC(=O)[C@H](CCCCN)NC(=O)[C@H](Cc1ccccc1)NC(=O)[C@H](CC(C)C)NC(=O)[C@H](CCCCN)NC(=O)[C@H](Cc1c[nH]c2ccccc12)NC(=O)[C@@H](N)CCCCN)[C@@H](C)CC)C(=O)NCC(=O)N[C@@H](CCCCN)C(=O)N[C@@H](Cc1ccccc1)C(=O)N[C@@H](CC(C)C)C(=O)N[C@@H](Cc1c[nH]cn1)C(=O)N[C@@H](CO)C(=O)N[C@@H](C)C(=O)N[C@@H](CCCCN)C(=O)N[C@@H](CCCCN)C(=O)N[C@@H](Cc1ccccc1)C(=O)O [Cec A Mag 2] (H-KWKLFKKIGIGKFLHSAKKF-OH; N-terminus and C-terminus assumed) | 32 µg/mL (≈ 13.3 µM) | – | – | + (key: +: MIC greater than 256 ug/mL; ++: MIC greater than 128 ug/mL, not sufficiently soluble to test as 256 ug/mL) | –
